The source of these data is PubChem BioAssay (NCI).

Structures are written as SMILES.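 Cells were grown in 96-well plates and exposed to each compound for 48 hours at five concentrations; endpoints were interpolated linearly between bracketing concentrations, or set to the highest concentration if not reached. At the GI50, growth is halved. TGI: concentration producing complete growth inhibition.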 Where a SMILES comes first, the peptide text is derived from it. The star is where a group is joined. Fmoc = O=C(OCC1c2ccccc2-c2ccccc21)*; OBn = c1ccc(CO*)cc1; tBu = CC(C)(C)*

Holding throughout (assay): inhibition of tumour cell growth, NCI panel, 48 h
For assay [1], the system named is K-562 leukemia.
The subject of assay [2] is UACC-62 melanoma.
The subject of assay [3] is 786-0 renal.
In assay [4] the test system is TK-10 renal.
The subject of assay [5] is A549 NSCLC.
Assay [6] concerns SR leukemia.
The test system of assay [7] is UACC-257 melanoma.
In assay [8] the test system is CCRF-CEM leukemia.
Assay [9] relates to NCI-H460 lung.
The test system of assay [10] is SK-OV-3 ovarian.
The subject of assay [11] is ACHN renal.

`CCCCCCCCCCCCCCCCOC[C@H](COC(c1ccccc1)(c1ccccc1)c1ccccc1)O[P+](=S)OC` (some centres not stated): the TGI in assay [1], in assay [2], in assay [3], in assay [4], in [5] and in assay [6] was above 100 µM in each case. For the same molecule, the TGI in assay [7], in assay [8], in assay [9], in assay [10] and in assay [11] was above 100 µM in each case.
As to `CC1(O)CC23CC(O)C4(O)C(CC(O)C4(C)C)C(C)(O)C2CCC1C3O` (configuration not stated), the TGI in assay [1], in [2], in [3], in assay [4], in assay [5] and in assay [6] was above 100 µM in each case. Moreover, the TGI in [7], in [8], in [9], in assay [10] and in assay [11] was above 100 µM in each case.
Regarding `CC(OC(C)(C)C)C(NC(=O)OCC1c2ccccc2-c2ccccc21)C(=O)NC(Cc1ccccc1)C(=O)OCc1ccccc1` (configuration not stated) (Fmoc-Thr(tBu)-Phe-OBn; configuration not given here), the TGI in assay [1], in [2], in assay [3], in [4], in [5] and in assay [6] was above 100 µM throughout. The TGI in assay [7], in [8], in assay [9], in [10] and in assay [11] was above 100 µM each time.
For the molecule `CCOC(=O)c1c(-c2ccc(Cl)cc2)c(C#N)c(=S)n(C2OC(COC(C)=O)C(OC(C)=O)C(OC(C)=O)C2OC(C)=O)c1C` (configuration not stated), the TGI in [1], in assay [2], in assay [3], in assay [4], in assay [5] and in assay [6] was above 100 µM each time. Also, the TGI in assay [7], in [8], in [9], in assay [10] and in assay [11] was above 100 µM throughout.
Consider `CCOC(=O)C(NC(=O)c1ccccc1)(Nc1ccc(S(=O)(=O)Nc2cc(C)on2)cc1)C(F)(F)F` (configuration not stated), for which the TGI in [1], in assay [2], in [3], in assay [4], in [5] and in assay [6] was above 100 µM in each case. Besides, the TGI in [7] is above 10 µM; in assay [8], above 100 µM; in [9], above 100 µM; in assay [10], above 100 µM; in [11], above 100 µM.
For the molecule `CN(C)CCCNC(=O)N/N=C/c1ccccn1`, the TGI in assay [1], in assay [2], in assay [4], in assay [5], in [6] and in assay [7] was above 10 µM throughout. The TGI in assay [8], in [9], in assay [10] and in assay [11] was above 10 µM throughout.
On to `Cn1c(COC(=O)NC2CCCCC2)c(COC(=O)NC2CCCCC2)c2ccc3ccccc3c21`, for which the TGI in assay [1], in assay [2], in [3], in assay [4], in assay [5] and in assay [6] was above 100 µM in each case. In addition, the TGI is above 100 µM in assay [7]; above 100 µM in assay [8]; 13.5 µM in assay [9]; above 100 µM in assay [10]; 53.6 µM in [11].
In the case of `CC(C)(C)OC(=O)N1CCC2(CC1)C(=O)NCN2c1ccccc1`, the TGI in assay [1], in assay [2], in [3], in assay [4], in assay [5] and in [6] was above 100 µM each time. The TGI in assay [7], in assay [8], in [9], in assay [10] and in [11] was above 100 µM throughout.
Regarding `CN1CCN(Cc2ccc(C(=S)Nc3ccccc3)s2)CC1`, the TGI in assay [1] was 95.9 µM; in assay [2], 41.3 µM; in assay [3] it was above 100 µM; in assay [5], above 100 µM; in assay [6], 73 µM; in assay [7] it was above 100 µM. For the same molecule, the TGI in assay [8], in assay [9], in assay [10] and in assay [11] was above 100 µM each time.
For the molecule `CSC1=C(C)C(/C=N/Nc2ccc([N+](=O)[O-])cc2)=C(C)N(c2ccccc2)S1(=O)=O`, the TGI in assay [1], in [2], in [3], in [4], in assay [5] and in assay [6] was above 100 µM each time. For the same molecule, the TGI in [7], in [8], in [9], in assay [10] and in assay [11] was above 100 µM throughout.
Take `C[N+](C)([O-])C12CC3CC(CC(C3)C1)C2`: the TGI was above 100 µM in [1]; 47.4 µM in assay [2]; above 100 µM in [3]; 88 µM in assay [4]; above 100 µM in assay [5]; above 100 µM in assay [6]. The TGI in assay [7], in assay [8], in assay [9], in assay [10] and in [11] was above 100 µM in each case.
Turning to `Nc1c(-c2ccccc2)c2ccc([N+](=O)[O-])cc2c(=O)n1-c1cccc(C(=O)O)c1`, the TGI in assay [1], in [2], in [4], in assay [5], in [6] and in assay [7] was above 100 µM throughout. Besides, the TGI in assay [8], in assay [9], in assay [10] and in [11] was above 100 µM throughout.
Regarding `O=c1c2ccccc2n2nnc3ccc(NCCNCCO)c1c32`, the TGI in assay [1] came out at 21.7 µM; in assay [2] it was 8.68 µM; in [3] it was 11.5 µM; in [4] it was 9.4 µM; in assay [5], 3.5 µM; in [6] it was 8.05 µM. For the same molecule, the TGI in [7] is 12.3 µM; in assay [8], 14.9 µM; in assay [9] it was 2.83 µM; in [10], 16.5 µM; in assay [11], 5.89 µM.
Take `COC(=O)c1c2c(cc3c1CC1(Cc4cc5c(cc4C1)CCCC5)C3)CCCC2`: the TGI in assay [1], in [2], in assay [3], in [4], in [5] and in assay [6] was above 100 µM each time. The TGI in assay [7], in assay [8], in assay [10] and in [11] was above 100 µM in each case.
For the molecule `COc1ccc(C2CC(c3cccc(Nc4ccncc4)c3)=NN2c2ccccc2)cc1` (configuration not stated), the GI50 in assay [1] was 2 µM; in assay [2] it was 1.74 µM; in assay [4] it was 2.12 µM; in assay [6], 2 µM; in assay [7] it was 2 µM; in assay [8], 3.44 µM. Further, the figures for the GI50 in assay [9], in assay [10] and in assay [11] were 1.8 µM, 5.53 µM and 1.81 µM, respectively. In addition, the TGI in assay [1] stood at 5.05 µM; in [2], 3.21 µM; in assay [4], 4.43 µM; in [6] it was 5.59 µM; in assay [7], 4.17 µM; in [8], 11.6 µM. Also, the TGI came out at 3.34 µM in assay [9], 20.9 µM in assay [10] and 3.28 µM in assay [11].
For the molecule `Cc1cc(S(=O)(=O)NC2=NCc3c(F)cccc3N2)c(S)cc1Cl`, the TGI in assay [2], in assay [3], in [4], in assay [5], in assay [6] and in assay [7] was above 100 µM throughout. Also, the TGI in assay [8], in [9] and in [11] was above 100 µM in each case.
Turning to `CC(CSc1nc2c(c(=N)n1-c1ccccc1)c(=S)n(-c1ccccc1)c(=S)n2-c1ccccc1)CN(C)C` (configuration not stated), the TGI was found to be 3.14 µM in [1]; 3.15 µM in assay [2]; 2.37 µM in [3]; 3.07 µM in assay [4]; 0.938 µM in [6]; 3.43 µM in assay [7]. Also, the TGI in assay [8] amounted to 1.49 µM; in assay [9] it was 4.14 µM; in assay [10] it was 11.6 µM; in assay [11], 3.15 µM.
For `CCOC(=O)NCC(=O)NCC(=O)NCC(N)=O`, the TGI in assay [1], in [2], in assay [3], in [4], in assay [5] and in [6] was above 100 µM each time. The TGI in [7], in [8], in assay [10] and in assay [11] was above 100 µM each time.
Consider `CCOC(=O)CC1(N)CC2c3ccccc3OC(=O)C2C(=O)N1` (configuration not stated), for which the TGI in assay [1], in assay [2], in assay [3], in assay [4], in [5] and in assay [6] was above 100 µM each time. The TGI in [7], in assay [8], in assay [9] and in assay [11] was above 100 µM each time.
As to `Nc1ccc2c3c1cccc3c(=O)n1c3ccc(Cc4ccc5c(c4)nc4c6ccc(N)c7cccc(c(=O)n54)c76)cc3nc21`, the TGI in [1], in assay [2], in assay [3], in assay [5], in assay [6] and in assay [7] was above 100 µM each time. Moreover, the TGI in assay [8], in assay [9], in assay [10] and in assay [11] was above 100 µM in each case.
In the case of `C/C(=C\C(=O)O)C(=O)N(C)c1ccccc1I`, the TGI in [1], in assay [2], in assay [3], in assay [5], in assay [6] and in assay [7] was above 100 µM in each case. In addition, the TGI in assay [8], in assay [9], in [10] and in assay [11] was above 100 µM each time.
On to `CN(Cc1ccccc1)C(=S)S`, for which the TGI is above 100 µM in assay [1]; above 100 µM in [2]; 40.7 µM in [3]; above 100 µM in [5]; 59.7 µM in assay [6]; above 100 µM in [7]. The TGI was 49.2 µM in [8], above 100 µM in assay [9], above 100 µM in [10] and above 100 µM in assay [11].
Consider `N#Cc1cc2c(n(C3OC(CO)C(O)C(O)C3O)c1=S)CCC2` (configuration not stated), for which the TGI in assay [1], in assay [2], in assay [3], in [4], in assay [5] and in [6] was above 100 µM throughout. In addition, the TGI in [7], in assay [8], in assay [9] and in [11] was above 100 µM each time.
In the case of `CC1(c2ccc(Cl)cc2)c2ccccc2C(=O)N1CCCN1C(=O)c2ccccc2C1=O` (configuration not stated), the TGI in [1], in assay [2], in [3], in assay [4], in assay [5] and in assay [6] was above 100 µM in each case. The TGI in assay [7], in assay [8], in assay [10] and in [11] was above 100 µM in each case.
As for `COc1cc2c(cc1OC)C(C1CC1)ON(C)CC2` (configuration not stated), the TGI in [1], in assay [2], in [3], in [4], in assay [5] and in assay [6] was above 100 µM each time. Also, the TGI in assay [7], in assay [8], in [9] and in [11] was above 100 µM in each case.
